We go through 2 compounds from PubChem BioAssay AID449772 (The Scripps Research Institute Molecular Screening Center, 2010).

Structures are written as SMILES. Activity calls are given as the source filed them.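 The calls were made as follows: active = mass spectrometry shows the compound covalently bound to the catalytic cysteine of glutathione transferase omega 1; inactive = no covalent bond to that cysteine seen.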

The experiment addresses Glutathione S-transferase omega-1 (Homo sapiens) (UniProt P78417). As to the kind of experiment: covalent labeling of GSTO1 active site, late-stage follow-up, mechanism study, biophysical, LC-MS/MS (AID 449772). To be noted: purified GSTO1, LC-MS/MS active-site cysteine labeling.

Chain of Glutathione S-transferase omega-1 (Homo sapiens) (P78417 whole entry, looked up): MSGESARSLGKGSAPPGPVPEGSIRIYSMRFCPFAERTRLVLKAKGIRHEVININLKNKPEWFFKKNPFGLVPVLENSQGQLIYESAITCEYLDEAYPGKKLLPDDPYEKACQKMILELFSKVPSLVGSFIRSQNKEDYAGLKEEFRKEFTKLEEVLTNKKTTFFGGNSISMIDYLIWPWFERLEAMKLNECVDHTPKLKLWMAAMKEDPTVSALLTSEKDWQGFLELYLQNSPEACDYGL

As for `O=C(NC1CCCCC1)C(c1cccnc1)N(C(=O)CCl)c1ccc(F)cc1` (configuration not stated), the outcome was active.

With `COc1ccc(C(C(=O)NC2CCCCC2)N(C(=O)CCl)c2cccc(Cl)c2)cc1` (configuration not stated), the outcome was active.
